Measurements from patent publication US5041432A, “Steroid derivatives useful as hypocholesterolemics” (E. I. Du Pont de Nemours and Company, priority 1990, dated 1991).

Experiments:
[1] = target: T1, Lanosta-8,24-dien-3β-ol 14α-methyl demethylase (Rattus norvegicus, UniProt Q64654); experiment: Lanosta-8,24-dien-3β-ol 14α-Methyl Demethylase Inhibition Assay; type: biochemical
T1 construct: rat hepatic microsomal preparations; from tissue; host or cells: rat liver microsomes
T1 sequence (Q64654 1-503): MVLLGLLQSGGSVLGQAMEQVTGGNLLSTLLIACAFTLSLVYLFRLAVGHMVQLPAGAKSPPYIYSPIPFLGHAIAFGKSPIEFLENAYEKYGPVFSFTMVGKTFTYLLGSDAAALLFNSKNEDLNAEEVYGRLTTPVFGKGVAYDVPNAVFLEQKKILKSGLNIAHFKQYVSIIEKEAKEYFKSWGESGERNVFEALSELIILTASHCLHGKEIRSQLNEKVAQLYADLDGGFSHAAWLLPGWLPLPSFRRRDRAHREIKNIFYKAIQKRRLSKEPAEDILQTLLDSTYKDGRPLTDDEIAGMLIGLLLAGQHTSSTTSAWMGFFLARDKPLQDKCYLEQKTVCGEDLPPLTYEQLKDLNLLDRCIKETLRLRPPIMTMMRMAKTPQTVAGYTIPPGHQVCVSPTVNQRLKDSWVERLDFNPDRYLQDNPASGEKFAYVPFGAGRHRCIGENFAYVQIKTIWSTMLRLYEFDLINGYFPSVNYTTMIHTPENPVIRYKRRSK
Method: B. Lanosta-8,24-dien-3β-ol 14α-Methyl Demethylase Inhibition Assay
Lanosta-8,24-dien-3β-ol 14α-methyl demethylase activity was determined in rat hepatic microsomal preparations as described in Trzaskos et al., J. Biol. Chem., 261, 16937-16942 (1986). Specifically, test compounds were added to assay mixtures as detergent suspensions with substrate employing 5 mg Triton WR-1339, 100 μM lanost-8-en-3β-ol substrate, and test compounds ranging from 0 to 100 μM. The inhibitor/substrate/detergent suspension was incubated with 2 mg microsomal protein for 5 min at 37° followed by a 10 min incubation initiated by the addition of cofactors required for the reaction. […] Inhibition values are expressed as the amount of compound required to inhibit lanosta-8,24-dien-3β-ol 14α-methyldemethylase activity by 50% relative to that of the controls.

[2] = test system: de novo cholesterol synthesis; experiment: Decreasing de novo cholesterol synthesis (radiolabeled acetate incorporation into cholesterol in CHO cells); type: cell-based, Chinese Hamster (CHO cells); details: Cricetulus griseus, 19 h, % of control culture (Control = 100)
Method: The ability of the compounds of Formula I to decrease de novo cholesterol synthesis was tested by measuring the incorporation of radiolabeled acetate into cholesterol synthesized in CHO cells. To conduct this experiment, CHO cells were plated at 0.3×10^6 cells per 15×60 mm tissue culture dish in 5 mL of McCoy's modified medium (Gibco Laboratories) containing 1% Cab-O-Sil delipidated FBS and incubated for 48 hours at 37° in a 5% CO2, 95% air environment. Test compounds in a 2.5% suspension of BSA (fatty acid free) in ethanol were then added to the cultures such that the final ethanol and BSA concentrations were 0.5% and 2.5%, respectively. Control cultures received ethanol and BSA alone. […]
The cells were harvested by washing the cells twice with 5 mL of cold PBS and scraping the cells into 1 mL PBS. […] The petroleum ether fractions were dried under nitrogen, resuspended in ethanol, counted and analyzed by reverse phase HPLC at 45° using an Ultrashpere Octyl column (from Altex Scientific Inc., Berkeley, Calif.) with a mobile phase of acetonitrile:methanol:water (44:44:12). The amount of cholesterol synthesis is measured by the amount of radiolabeled acetate incorporated into the cholesterol peak. The percent of cholesterol synthesis in the treated culture is calculated based upon the control culture.

[3] = test system: 3-Hydroxy-3-Methylglutaryl Coenzyme A Reductase (HMGR); experiment: HMGR Suppression Assay (HMGR activity in digitonin-permeabilized CHO cells); type: cell-based, Chinese Hamster (CHO cells); details: tested under the same conditions as Table I
Method: The ability of the compounds of Formula I to suppress the activity of HMGR, the rate limiting enzyme of cholesterol biosynthesis, was tested as follows. Chinese Hamster Ovary (CHO) cells were divided twice weekly and were maintained in McCoy's 5A medium supplemented with 1% Cab-O-Sil delipidated Fetal Bovine Serum (FBS) (obtained from Gibco Laboratories, Chagrin Falls, Ohio). […] Control cells were treated in an identical fashion to those which received test compound, except they were incubated with the BSA and ethanol suspension only.
Specifically, the medium in each well was aspirated and the cells rinsed with a 50 mM solution of phosphate buffered saline (PBS). One mL of 30 μg/mL of digitonin in CSK buffer (prepared using 10 mM Pipes [piperazine-N,N'-bis(2-ethansulfonic)acid'], 100 mM KCl, 2.5 mM MgCl2, 300 mM sucrose, 1 mM EGTA, pH 6.8) was added to each well and incubated for 10 min at 22° to permeabilize the cells. […] HMGR activity was measured directly by adding 75 μL of PIB buffer (50 mM potassium phosphate, 1 mM Na2 EDTA, 10 mM dithiothreitol, pH 7.4) to each well and incubating the cells for 30 minutes at 37° as described above. […] The assay mixture was incubated for 30 min at 37° and terminated by the addition of 70 μL of [^3 H]-mevalonic acid (35,000 DPM/assay), 0.15 mg/mL in 3 N HCl. The reaction was left to lactonize for an additional 30 min at 37° or overnight at room temperature.
Reaction products were separated by thin layer chromatography on silica gel G (obtained from Analtech, Newark, Del.) developed in an unsaturated environment with acetone:benzene (3:2, v:v). The band corresponding to mevalonolactone was identified by exposure to iodine vapor and was scraped into counting vials. […] Corrections for recovery and blank values were made for each sample. […] Cellular protein was solubilized from culture dishes by the addition of 20 μL of 16 N KOH and assayed directly for protein amount. Suppression values are expressed as the amount of compound required to suppress HMGR activity by 50% relative to that of the controls.

effect on lanosta-8,24-dien-3β-ol 14α-methyl demethylase activity ([1]; tested under the same conditions as Table I) | SMILES | IC50 ([1]; rat hepatic microsomes, 100 μM lanost-8-en-3β-ol substrate, test compounds 0 to 100 μM) [nM] | activity at 1 µM [2] [%] | effect on measured HMGR activity [3] | substrate for the demethylase enzyme [1]
– | C=CC(O)[C@@]12CC[C@H]([C@H](C)CCCC(C)C)[C@@]1(C)CCC1=C2CC[C@H]2C(C)(C)[C@@H](O)CC[C@]12C (single isomer, unassigned) [Compound 11a, 4,4-dimethyl-14α-(1'-hydroxy-2'-propenyl)-5α-cholest-8-en-3β-ol] | 800 | 1 | – | –
without effect | CC(C)CCC[C@@H](C)[C@H]1CC[C@H]2[C@@H]3CC=C4C[C@@H](O)CC[C@]4(C)[C@H]3CC[C@]12C [cholesterol] | – | – | without effect | –
– | CC(C)CCC[C@@H](C)[C@H]1CC[C@@]2(C)C3=C(CC[C@]12C)[C@@]1(C)CC[C@H](O)C(C)(C)[C@@H]1CC3 [lanost-8-en3β-ol, lanost-8-en-3β-ol] | – | – | without effect | clearly served as substrates
– | CC(C)=CCC[C@@H](C)[C@H]1CC[C@@]2(C)C3=C(CC[C@]12C)[C@@]1(C)CC[C@H](O)C(C)(C)[C@@H]1CC3 [lanosta-8,24-dien-3β-ol] | – | – | without effect | clearly served as substrates
